Results published in US4962111A (priority 1989, dated 1990).
Converted amounts (≈) assume the structure as drawn. Read-outs that look alike come from different tables or passages of the source.

How the values were obtained:
Mycobacterium kansasii = test: microbe, parasite or virus in culture; assay type: cell-based; conditions: 99% (2 log) inhibition
[1] = system: BCG (Bacillus Calmette-Guerin, an attenuated Mycobacterium bovis); test: microbe, parasite or virus in culture; assay type: cell-based; conditions: Mycobacterium tuberculosis variant bovis BCG, pH 5.8, pH 5.8
[2] = system: Mycobacterium tuberculosis; test: microbe, parasite or virus in culture; assay type: cell-based; conditions: 99% (2 log) inhibition
tuberculosis = conditions: applied subcutaneously; cited from earlier work
[3] = system: Mycobacterium tuberculosis H37RV; conditions: cited from earlier work
[4] = system: Mycobacterium tuberculosis; conditions: background statement; cited from earlier work
M. bovis = conditions: cited from earlier work
other mycobacteria = conditions: background statement; cited from earlier work
[5] = background statement; cited from earlier work
[6] = Mycobacterium tuberculosis, pH 5.8, M. tb. BAK, read-out: MIC
[7] = Mycobacterium tuberculosis, pH 5.8, M. tb. BUR, read-out: MIC
[8] = Mycobacterium tuberculosis, pH 5.8, M. tb. CES, read-out: MIC
[9] = Mycobacterium tuberculosis, pH 5.8, M. tb. DOL, read-out: MIC
[10] = Mycobacterium tuberculosis, pH 5.8, M. tb. DOU, read-out: MIC
[11] = Mycobacterium tuberculosis, pH 5.8, M. tb. DUB, read-out: MIC
[12] = Mycobacterium tuberculosis, pH 5.8, M. tb. GLA, read-out: MIC
[13] = Mycobacterium tuberculosis, pH 5.8, M. tb. ING, read-out: MIC
[14] = Mycobacterium tuberculosis, pH 5.8, M. tb. LFL, read-out: MIC
[15] = Mycobacterium tuberculosis, pH 5.8, M. tb. MCQ, read-out: MIC
[16] = Mycobacterium tuberculosis, pH 5.8, M. tb. SMA, read-out: MIC
[17] = Mycobacterium tuberculosis, pH 5.8, M. tb. WOO, read-out: MIC

Compound | MIC (Mycobacterium kansasii; pH 5.8, M. kans. SCH) [µg/mL] | MIC (Mycobacterium kansasii; pH 5.8, M. kans. SWK) [µg/mL] | MIC [1] [µg/mL] | MIC [2, 6] [µg/mL] | MIC [2, 7] [µg/mL] | MIC [2, 8] [µg/mL] | MIC [2, 9] [µg/mL] | MIC [2, 10] [µg/mL] | MIC [2, 11] [µg/mL] | MIC [2, 12] [µg/mL] | MIC [2, 13] [µg/mL] | MIC [2, 14] [µg/mL] | MIC [2, 15] [µg/mL] | MIC [2, 16] [µg/mL] | MIC [2, 17] [µg/mL] | also measured
CCCOC(=O)c1cnccn1 [n-Propyl Pyrazinoate] | 12.5 (≈ 75.2 µM) | 6.25 (≈ 37.6 µM) | > 200 | ≤ 3.12 | ≤ 3.12 | ≤ 3.12 | ≤ 3.12 | ≤ 3.12 | ≤ 3.12 | 6.25 (≈ 37.6 µM) | ≤ 3.12 | 6.25 (≈ 37.6 µM) | ≤ 3.12 | ≤ 3.12 | – | –
Cc1ccc(OC(=O)c2cnccn2)cc1 [p-Tolyl Pyrazinoate] | 12.5 (≈ 58.4 µM) | 12.5 (≈ 58.4 µM) | 25 (≈ 117 µM) | 12.5 (≈ 58.4 µM) | 12.5 (≈ 58.4 µM) | 12.5 (≈ 58.4 µM) | 6.25 (≈ 29.2 µM) | – | 25 (≈ 117 µM) | 6.25 (≈ 29.2 µM) | 25 (≈ 117 µM) | 12.5 (≈ 58.4 µM) | 6.25 (≈ 29.2 µM) | 25 (≈ 117 µM) | 25 (≈ 117 µM) | MIC ([2]; M. tb. DOU, pH 5.8): 25 µg/mL (≈ 117 µM)
Isopropyl thiopyrazinoate | – | – | – | – | – | – | – | – | – | – | – | – | – | – | – | activity in a standardized mouse test (tuberculosis): exhibited activity
C=CCOC(=O)c1cnccn1 [Allyl Pyrazinoate] | 6.25 (≈ 38.1 µM) | 6.25 (≈ 38.1 µM) | 100 (≈ 609 µM) | – | 6.25 (≈ 38.1 µM) | ≤ 3.12 | ≤ 3.12 | 3.12 (≈ 19 µM) | 6.25 (≈ 38.1 µM) | 6.25 (≈ 38.1 µM) | 3.12 (≈ 19 µM) | 3.12 (≈ 19 µM) | ≤ 3.12 | 3.12 (≈ 19 µM) | 6.25 (≈ 38.1 µM) | MIC ([2]; M. tb. BAK, pH 5.8): 3.12 µg/mL (≈ 19 µM)
CN(C)CCOC(=O)c1cnccn1 [N,N-dimethyl-2-aminoethyl pyrazinoate] | – | – | – | – | – | – | – | – | – | – | – | – | – | – | – | in vitro activity against Mycobacterium tuberculosis H37RV [3]: active
O=C(OCC(F)(F)F)c1cnccn1 [β, β, β-Trifluoroethyl Pyrazinoate] | 100 (≈ 485 µM) | 200 (≈ 970 µM) | 200 (≈ 970 µM) | 25 (≈ 121 µM) | 25 (≈ 121 µM) | 12.5 (≈ 60.6 µM) | 25 (≈ 121 µM) | 100 (≈ 485 µM) | 25 (≈ 121 µM) | 12.5 (≈ 60.6 µM) | 25 (≈ 121 µM) | 50 (≈ 243 µM) | 25 (≈ 121 µM) | 25 (≈ 121 µM) | 25 (≈ 121 µM) | –
NC(=O)c1cnccn1 [pyrazinamide] | – | – | > 200 | – | – | – | – | – | – | – | – | – | – | – | – | activity against M. tuberculosis [4]: only active against Mycobacterium (M.) tuberculosis; activity against M. bovis (M. bovis): not active; activity against other mycobacteria (other mycobacteria): not active; hepatotoxicity [5]: hepatotoxicity
